Experimental data: PubChem BioAssay (NCI)
Where “and” joins values, the source holds several entries; their conditions need not be identical. Equal entries are not always repeated.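 Following 48 hours of exposure in 96-well plates, responses at five concentrations were used to interpolate endpoints linearly. Here, GI50 denotes the concentration required for 50% inhibition of growth. TGI: concentration producing complete growth inhibition.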

Assays:
Test in all cases: growth of human tumour cells (NCI), 48 h
786-0 renal = test system: 786-0 renal
EKVX NSCLC = test system: EKVX NSCLC
HCT-116 colon = test system: HCT-116 colon
HCT-15 colon = test system: HCT-15 colon
LOX IMVI melanoma = test system: LOX IMVI melanoma
NCI-H460 lung = test system: NCI-H460 lung
SK-MEL-28 melanoma = test system: SK-MEL-28 melanoma
SK-OV-3 ovarian = test system: SK-OV-3 ovarian
SW-620 colon = test system: SW-620 colon
HOP-92 NSCLC = test system: HOP-92 NSCLC

| SMILES | GI50 (786-0 renal) | TGI (786-0 renal) | GI50 (EKVX NSCLC) | TGI (EKVX NSCLC) | GI50 (HCT-116 colon) | TGI (HCT-116 colon) | GI50 (HCT-15 colon) | TGI (HCT-15 colon) | GI50 (LOX IMVI melanoma) | TGI (LOX IMVI melanoma) | GI50 (NCI-H460 lung) [µM] | TGI (NCI-H460 lung) [µM] | GI50 (SK-MEL-28 melanoma) [µM] | TGI (SK-MEL-28 melanoma) | GI50 (SK-OV-3 ovarian) | TGI (SK-OV-3 ovarian) | GI50 (SW-620 colon) | TGI (SW-620 colon) | GI50 (HOP-92 NSCLC) | TGI (HOP-92 NSCLC) |
| --- | --- | --- | --- | --- | --- | --- | --- | --- | --- | --- | --- | --- | --- | --- | --- | --- | --- | --- | --- | --- |
| O=C(c1ccccc1)c1c(NCC(O)CN2CCCC2)n(Cc2ccccc2)c(=O)n(Cc2ccccc2)c1=O (stereo not given) | 18.9 µM | 35.5 µM | 19.6 µM | 49.1 µM | 15 µM | 28.2 µM | 17 µM | 32.2 µM | 15.7 µM | 29.4 µM | 19.8 | 38.9 | 17.6 | 32.3 µM | 34 µM | > 100 µM | 15.6 µM | 30.4 µM | – | – |
| CN1CCc2cc3c(cc2C1O)OCO3 (stereo not given) | 17.6 µM and > 100 µM | 34.5 µM and > 100 µM | 17.8 µM and > 100 µM | 36.8 µM and > 100 µM | 19.2 µM and > 100 µM | 36.2 µM and > 100 µM | 20.8 µM and > 100 µM | 45 µM and > 100 µM | 17.4 µM and > 100 µM | 40.3 µM and > 100 µM | – | – | – | 22.3 µM and > 100 µM | 17.5 µM and > 100 µM | 31.7 µM and > 100 µM | 16.6 µM and > 100 µM | 33.8 µM and > 100 µM | 20.8 µM and > 100 µM | 39 µM and > 100 µM |
| COc1cc(-c2nn3c(/C=C4/C(=O)Nc5ccccc54)c(-c4ccc(C)cc4)nc3s2)cc(OC)c1OC | 5.8 µM | 21.4 µM | – | – | 2.59 µM | 13.8 µM | 2.68 µM | > 100 µM | – | – | 1.98 | > 100 | – | – | 15.2 µM | 39.7 µM | – | – | 0.42 µM | 8.99 µM |
| CCCCCCCCCCCOC(=S)NC(C)C | – | 39.3 µM | – | 43.3 µM | – | 31.3 µM | – | 31.8 µM | – | 30.7 µM | – | 50.7 | – | 56.6 µM | – | 49.6 µM | – | 30.2 µM | – | 32.2 µM |
| CC(=O)N1CCN(C2=Nc3ccccc3CO2)C1=S | > 100 µM | > 100 µM | 45.1 µM | > 100 µM | 89.8 µM | > 100 µM | 57.8 µM | > 100 µM | 52.4 µM | > 100 µM | 70.5 | > 100 | > 100 | > 100 µM | > 100 µM | > 100 µM | 92.5 µM | > 100 µM | 34 µM | > 100 µM |
| O=C(c1ccc2ccccc2c1O)N1CCCCC1 | – | > 100 µM | – | > 100 µM | – | > 100 µM | – | > 100 µM | – | > 100 µM | – | > 100 | – | > 100 µM | – | > 100 µM | – | > 100 µM | – | > 100 µM |
| OCCOc1ccc(-c2cc(-c3ccccn3)nc(-c3ccccn3)c2)cc1 | – | 13.9 µM | – | > 100 µM | – | > 43.7 µM | – | > 40.6 µM | – | 6.43 µM | – | 3.69 | – | > 100 µM | – | 2.17 µM | – | > 100 µM | – | > 100 µM |
| Nc1ncnc2c1ncn2C1OC(COP(=O)(O)CP(=O)(O)O)C(O)C1O (stereo not given) | – | > 100 µM | – | > 100 µM | – | > 100 µM | – | > 100 µM | – | > 100 µM | – | – | – | > 100 µM | – | > 100 µM | – | > 100 µM | – | – |
